Kd, EC50 and IC50 data for 15 molecules are collected here from patent US20250228855A1, “PYRAZINAMIDE COMPOUNDS” (The General Hospital Corporation, priority 2022, published 2025).

The target in assay [1] is T1, HsProRS (Homo sapiens, UniProt P07814).
T1 sequence (P07814 1007-1512 limits assumed): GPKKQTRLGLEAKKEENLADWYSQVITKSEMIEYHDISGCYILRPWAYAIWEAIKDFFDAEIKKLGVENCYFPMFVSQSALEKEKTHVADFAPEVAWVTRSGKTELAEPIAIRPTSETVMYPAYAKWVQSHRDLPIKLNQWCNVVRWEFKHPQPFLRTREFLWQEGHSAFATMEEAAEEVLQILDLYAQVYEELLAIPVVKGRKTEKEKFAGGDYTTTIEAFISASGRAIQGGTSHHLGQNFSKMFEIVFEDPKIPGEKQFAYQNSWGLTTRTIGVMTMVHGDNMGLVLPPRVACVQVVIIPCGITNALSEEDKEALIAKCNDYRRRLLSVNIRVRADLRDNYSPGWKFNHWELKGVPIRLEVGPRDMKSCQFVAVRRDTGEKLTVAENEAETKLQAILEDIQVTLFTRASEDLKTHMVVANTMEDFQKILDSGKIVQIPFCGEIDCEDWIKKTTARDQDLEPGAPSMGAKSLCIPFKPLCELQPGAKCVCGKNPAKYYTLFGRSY
Kind of assay: TR-FRET ligand displacement assay with tracer MAT379, HsProRS. Type of assay: binding.

Assay [2] deals with PfcProRS (Plasmodium falciparum, UniProt Q8I5R7). As to the kind of experiment: TR-FRET ligand displacement assay with tracer MAT379, PfcProRS. Type of assay: binding.
The subject of assay [3] is halofuginone-induced (HFG-induced) P. falciparum. As to the kind of experiment: P. falciparum asexual blood stage growth assay, halofuginone-induced parasites. Particulars: Plasmodium falciparum.
Method: (§1) Asexual blood stage (ABS) P. falciparum parasites were treated with test compounds at varying concentrations for 72 h, followed by quantification of parasite growth by SYBR Green staining.
(§2) P. falciparum Asexual Blood Stage Growth Assay: This assay was performed as previously described.
The subject of assay [4] is P. falciparum Dd2-2D4. As to the kind of experiment: P. falciparum asexual blood stage growth assay, wild-type Dd2-2D4. The following applies: Plasmodium falciparum.
Method: as §1, §2
Where [5] appears, read: no proline, no ATP, read-out: HsProRS (KD [nM]) −.
[6] abbreviates: read-out: HsProRS (KD [nM]) +proline, 100 μM Pro.
[7] abbreviates: PfcProRS (KD [nM]) +proline, 100 μM Pro.
Setting [8] is: no proline, no ATP, read-out: PfcProRS (KD [nM]) −.
The mark [9] stands for this setting: DD2, 72 h, read-out: Dd2 (EC50 [nM]) Halofuginone-induced.
Where [10] appears, read: read-out: EC50 in halofuginone-induced parasites.
[11] abbreviates: DD2, 72 h, read-out: Dd2 (EC50 [nM]) wt.
[12] abbreviates: DD2, read-out: EC50 against Dd2-2D4 wildtype parasites.
Where [13] appears, read: KD for HsProRS in presence of 100 μM proline, 100 μM proline.
Setting [14] is: absence of proline, read-out: KD for PfcProRS.
[15] abbreviates: absence of proline, read-out: KD for HsProRS.

Structures can show the parent of a compound that is named as a salt. Where two headings read alike, the source gives them in different places. Bounds are passed on as bounds.

The term Kd denotes a measure of binding affinity in units of concentration. What is called EC50 is the concentration that produces a half-maximal response. Usually IC50 stands for the concentration needed to halve the response being measured.

Sequence of PfcProRS (Q8I5R7 whole entry): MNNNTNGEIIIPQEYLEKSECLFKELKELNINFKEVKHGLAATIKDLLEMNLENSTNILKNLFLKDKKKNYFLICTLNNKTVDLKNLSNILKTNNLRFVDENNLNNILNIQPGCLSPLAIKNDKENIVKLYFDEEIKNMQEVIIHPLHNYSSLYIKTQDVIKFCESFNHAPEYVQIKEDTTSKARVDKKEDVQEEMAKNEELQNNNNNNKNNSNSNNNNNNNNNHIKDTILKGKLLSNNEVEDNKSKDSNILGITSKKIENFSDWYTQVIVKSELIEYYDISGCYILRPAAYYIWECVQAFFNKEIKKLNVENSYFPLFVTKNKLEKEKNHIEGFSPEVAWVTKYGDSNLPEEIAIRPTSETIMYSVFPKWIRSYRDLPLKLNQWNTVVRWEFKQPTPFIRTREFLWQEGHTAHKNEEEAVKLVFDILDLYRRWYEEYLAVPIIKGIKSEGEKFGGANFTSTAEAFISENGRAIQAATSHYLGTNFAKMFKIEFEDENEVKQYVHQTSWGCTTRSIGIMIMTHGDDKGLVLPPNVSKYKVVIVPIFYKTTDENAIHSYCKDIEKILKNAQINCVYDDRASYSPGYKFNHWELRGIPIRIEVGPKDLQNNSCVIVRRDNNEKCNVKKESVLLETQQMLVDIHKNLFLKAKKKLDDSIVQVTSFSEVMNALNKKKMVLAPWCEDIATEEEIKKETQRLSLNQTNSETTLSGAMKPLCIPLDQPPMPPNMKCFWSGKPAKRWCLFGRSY

As for `O=C(NC1Cc2ccccc2C1)c1nccnc1NC(=O)C1CCCCC1` [Compound 2, 3-(cyclohexanecarboxamido)-N-(2,3-dihydro-1H-inden-2-yl)pyrazine-2-carboxamide, reference compound], the Kd in assay [1] (setting [5]) is 371 nM; in assay [1] (read-out: HsProRS (KD [nM]) +ATP, +ATP) it was 954 nM; in assay [1] (setting [6]) it was 2.16 nM; in assay [2] (PfcProRS (KD [nM]) +ATP, 500 μM ATP), 291 nM; in assay [2] (setting [7]) it was 7.17 nM; in assay [2] (setting [8]), 437 nM. The EC50 in assay [3] (setting [9]) was determined as 1250 nM; in assay [3] (setting [10]), 1250 nM; in assay [4] (setting [11]), 595 nM; in assay [4] (setting [12]) it was 595 nM.
Turning to `CC1(C(=O)Nc2nccnc2C(=O)NC2Cc3ccccc3C2)CCCCC1` [Compound 4, N-(2,3-dihydro-1H-inden-2-yl)-3-(1-methylcyclohexane-1-carboxamido)pyrazine-2-carboxamide], the Kd stood at 221 nM in assay [1] (setting [5]), 2.55 nM in assay [1] (setting [6]), 3.42 nM in assay [2] (setting [7]) and 275 nM in assay [2] (setting [8]). For the same molecule, the EC50 amounted to 540 nM in assay [3] (setting [9]), 540 nM in assay [3] (setting [10]), 180 nM in assay [4] (setting [11]) and 180 nM in assay [4] (setting [12]).
For the molecule `CC(C)(C)OC(=O)N[C@H]1CC[C@@H](C(=O)Nc2nccnc2C(=O)NC2Cc3ccccc3C2)CC1` [Compound 6, tert-butyl ((1s,4s)-4-((3-((2,3-dihydro-1H-inden-2-yl)carbamoyl)pyrazin-2-yl)carbamoyl)cyclohexyl)carbamate], the Kd in assay [1] (setting [5]) amounted to 56.8 nM; in assay [1] (setting [6]) it was 82.7 nM; in assay [2] (setting [7]), 26.3 nM; in assay [2] (setting [8]) it was 31.5 nM. The EC50 in assay [3] (setting [9]) turned out to be 7930 nM; in assay [4] (setting [11]), 508 nM.
`CC(C)(C)OC(=O)NCC1CCN(C(=O)Nc2nccnc2C(=O)NC2Cc3ccccc3C2)CC1` [Compound 9, tert-butyl ((1-((3-((2,3-dihydro-1H-inden-2-yl)carbamoyl)pyrazin-2-yl)carbamoyl)piperidin-4-yl)methyl)carbamate]: the Kd is over 5090 nM in assay [1], 2510 nM in assay [1] (setting [5]), 353 nM in assay [2] (setting [7]) and 382 nM in assay [2] (setting [8]). For the same molecule, the EC50 in assay [3] (setting [9]) turned out to be 7530 nM; in assay [4] (setting [11]), 6570 nM.
Take `O=C(NC1Cc2ccccc2C1)c1nccnc1NC(=O)N1CCC(CCO)CC1` [Compound 12, N-(2,3-dihydro-1H-inden-2-yl)-3-(4-(2-hydroxyethyl)piperidine-1-carboxamido)pyrazine-2-carboxamide]: the Kd in assay [1] (setting [5]) amounted to 687 nM; in assay [1] (setting [6]) it was 150 nM; in assay [2] (setting [7]), 339 nM; in assay [2] (setting [8]) it was 515 nM. The EC50 in assay [3] (setting [9]) is 6350 nM; in assay [4] (setting [11]), 153 nM.
As for `C[C@@H]1CCC[C@H](C)N1C(=O)Nc1nccnc1C(=O)NC1Cc2ccccc2C1` [Compound 19, N-(2,3-dihydro-1H-inden-2-yl)-3-(cis-2,6-dimethylpiperidine-1-carboxamido)pyrazine-2-carboxamide], the equilibrium dissociation constant (Kd) in assay [1] (setting [5]) is over 8720 nM; in assay [1] (setting [6]) it was 1320 nM; in assay [2] (setting [7]) it was 1180 nM; in assay [2] (setting [8]), over 2860 nM. Further, the 50% effective concentration (EC50) in assay [3] (setting [9]) is 8590 nM; in assay [4] (setting [11]) it was over 10000 nM.
With `O=C(NC1Cc2ccccc2C1)c1nccnc1NC(=O)C1CCC1` [Compound 20, 3-(cyclobutanecarboxamido)-N-(2,3-dihydro-1H-inden-2-yl)pyrazine-2-carboxamide], the dissociation constant Kd was found to be 738 nM in assay [1] (setting [5]), 13.2 nM in assay [1] (setting [6]), 100 nM in assay [2] (setting [7]) and 1260 nM in assay [2] (setting [8]). The results for the 50% effective concentration (EC50) in assay [3] (setting [9]) and in assay [4] (setting [11]) were 6010 nM and 3740 nM, respectively.
Take `CC(C)(C)OC(=O)NCCCCCC(=O)NC1CCN(C(=O)Nc2nccnc2C(=O)NC2Cc3ccccc3C2)CC1` [Compound 41, tert-butyl (6-((1-((3-((2,3-dihydro-1H-inden-2-yl)carbamoyl)pyrazin-2-yl)carbamoyl)piperidin-4-yl)amino)-6-oxohexyl)carbamate]: the Kd was 139 nM in assay [1] (setting [5]), 561 nM in assay [1] (setting [6]), 182 nM in assay [2] (setting [7]) and 227 nM in assay [2] (setting [8]). In addition, the figures for the EC50 in assay [3] (setting [9]) and in assay [4] (setting [11]) were 6910 nM and 2110 nM, respectively.
For the molecule `NCCCCCC(=O)NC1CCN(C(=O)Nc2nccnc2C(=O)NC2Cc3ccccc3C2)CC1` [Compound 42, 3-(4-(6-aminohexanamido)piperidine-1-carboxamido)-N-(2,3-dihydro-1H-inden-2-yl)pyrazine-2-carboxamide dihydrochloride], the Kd came to 780 nM in assay [1] (setting [6]), 674 nM in assay [1] (read-out: HsProRS (KD [nM]) −), 295 nM in assay [2] (setting [7]) and 433 nM in assay [2] (setting [8]). For the same molecule, the EC50 in assay [3] (setting [9]) came to 9080 nM; in assay [4] (setting [11]), 3120 nM.
Consider `CC(C)(C)OC(=O)NCCCCCC(=O)NCC1CCN(C(=O)Nc2nccnc2C(=O)NC2Cc3ccccc3C2)CC1` [Compound 43, tert-butyl (6-(((1-((3-((2,3-dihydro-1H-inden-2-yl)carbamoyl)pyrazin-2-yl)carbamoyl)piperidin-4-yl)methyl)amino)-6-oxohexyl)carbamate], for which the Kd in assay [1] (setting [5]) worked out at 611 nM; in assay [1] (setting [6]), 2280 nM; in assay [2] (setting [7]), 320 nM; in assay [2] (setting [8]) it was 375 nM. Also, the results for the half-maximal effective concentration (EC50) in assay [3] (setting [9]) and in assay [4] (setting [11]) were 5090 nM and 3330 nM, respectively.
As to `NCCCCCC(=O)NCC1CCN(C(=O)Nc2nccnc2C(=O)NC2Cc3ccccc3C2)CC1` [Compound 44, 3-(4-((6-aminohexanamido)methyl)piperidine-1-carboxamido)-N-(2,3-dihydro-1H-inden-2-yl)pyrazine-2-carboxamide dihydrochloride], the Kd was 330 nM in assay [1] (setting [6]), 1570 nM in assay [1] (read-out: HsProRS (KD [nM]) −), 270 nM in assay [2] (setting [7]) and 321 nM in assay [2] (setting [8]). The values for the EC50 in assay [3] (setting [9]) and in assay [4] (setting [11]) were 8910 nM and over 10000 nM, respectively.
For `O=C(NS(=O)(=O)N1CCN(C(=O)Nc2nccnc2C(=O)NC2Cc3ccccc3C2)CC1)OC[C@@H]1CCCN1` [MAT457, (S)-pyrrolidin-2-ylmethyl ((4-((3-((2,3-dihydro-1H-inden-2-yl)carbamoyl)pyrazin-2-yl)carbamoyl)piperazin-1-yl)sulfonyl)carbamate hydrochloride], the equilibrium dissociation constant (Kd) was determined as 9.71 nM in assay [1] (KD for HsProRS), 16.3 nM in assay [1] (setting [13]), 118 nM in assay [2] (setting [7]) and 152 nM in assay [2] (setting [14]). For the same molecule, the EC50 in assay [3] (setting [9]) is 6570 nM; in assay [3] (setting [10]) it was over 10000 nM; in assay [4] (setting [11]), 968 nM; in assay [4] (setting [12]), 968 nM.
For `O=C(NS(=O)(=O)N1CCN(C(=O)Nc2nccnc2C(=O)NC2Cc3ccccc3C2)CC1)OC[C@H]1CCCN1` [MAT459, (R)-pyrrolidin-2-ylmethyl ((4-((3-((2,3-dihydro-1H-inden-2-yl)carbamoyl)pyrazin-2-yl)carbamoyl)piperazin-1-yl)sulfonyl)carbamate], the Kd in assay [1] (setting [13]) was determined as 245 nM; in assay [1] (setting [15]), 105 nM; in assay [2] (setting [7]), 552 nM; in assay [2] (setting [14]), 736 nM. For the same molecule, the EC50 is 7080 nM in assay [3] (setting [9]), over 10000 nM in assay [3] (setting [10]), 4620 nM in assay [4] (setting [11]) and 4620 nM in assay [4] (setting [12]).
As for `O=C(CCCCCNC(=S)Nc1ccccc1)NC1CCN(C(=O)Nc2nccnc2C(=O)NC2Cc3ccccc3C2)CC1` [MAT482], the Kd in assay [1] (setting [5]) came to 516 nM; in assay [1] (setting [6]) it was 1360 nM; in assay [2] (setting [8]) it was 78.3 nM; in assay [2] (read-out: PfcProRS (KD [nM]) +proline, 100 μM Pro) it was 61.6 nM. Also, the EC50 in assay [3] (setting [9]) came to 5540 nM; in assay [4] (setting [11]) it was 2720 nM.
As to `Nc1ncnc2c1ncn2[C@@H]1O[C@H](CNS(=O)(=O)NC(=O)OCCn2cnc3ccccc3c2=O)[C@@H](O)[C@H]1O` [MAT511, 2-(4-oxoquinazolin-3(4H)-yl)ethyl (N-(((2R,3S,4R,5R)-5-(6-amino-9H-purin-9-yl)-3,4-dihydroxytetrahydrofuran-2-yl)methyl)sulfamoyl)carbamate], the dissociation constant Kd in assay [1] was over 5090 nM; in assay [1] (setting [15]) it was over 10000 nM; in assay [1] (setting [5]) it was over 8720 nM; in assay [2] (setting [7]) it was 1810 nM; in assay [2] (setting [14]) it was over 10000 nM; in assay [2] (setting [8]) it was over 2860 nM. Moreover, the EC50 in assay [3] (setting [9]) was 52.2 nM; in assay [4] (setting [11]), 76.5 nM. In addition, the IC50 in assay [4] (DD2, read-out: IC50 for Dd2-2D4) was found to be 73.9 nM.
